Key:
Type in all cases: in vivo
[1] = test system: bermudagrass (Cynodon dactylon); assay: Test B pre-/postemergence plant response; details: for Bermudagrass plant response rating: 8 g ai/ha
How it was run: (§1)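 Seeds were sown and sprayed preemergence, while plants at 2 to 18 cm (1- to 4-leaf stage) got postemergence sprays. Compounds were formulated in a non-phytotoxic solvent mixture with surfactant. After 13 to 15 days in a greenhouse, injury was rated visually against untreated controls, 0 (no effect) to 100 (complete control).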

[2] = test system: blackgrass (Alopecurus myosuroides); assay: Test B pre-/postemergence plant response; details: for Blackgrass plant response rating: 8 g ai/ha
How it was run: as §1

corn (Zea mays) = assay: Test B pre-/postemergence plant response; details: for Corn plant response rating: 8 g ai/ha
How it was run: as §1

[3] = test system: eastern black (E.B.) nightshade (Solanum ptycanthum); assay: Test B pre-/postemergence plant response; details: Preemergence
How it was run: as §1

[4] = test system: giant foxtail (Setaria faberii); assay: Test B pre-/postemergence plant response; details: for Foxtail, Giant plant response rating: 8 g ai/ha
How it was run: as §1

[5] = test system: lambsquarters (Chenopodium album); assay: Test B pre-/postemergence plant response; details: for Lambsquarters plant response rating: 8 g ai/ha
How it was run: as §1

[6] = test system: morningglory (Ipomoea coccinea); assay: Test B pre-/postemergence plant response; details: for Morningglory plant response rating: 8 g ai/ha
How it was run: as §1

[7] = test system: velvetleaf (Abutilon theophrasti); assay: Test B pre-/postemergence plant response; details: for Velvetleaf plant response rating: 8 g ai/ha
How it was run: as §1

wild oat (Avena fatua) = assay: Test B pre-/postemergence plant response; details: for Oat, Wild plant response rating: 8 g ai/ha
How it was run: as §1

[8] = test system: yellow nutsedge (Cyperus esculentus); assay: Test B pre-/postemergence plant response; details: for Nutsedge, Yellow plant response rating: 8 g ai/ha
How it was run: as §1

[9] = test system: canarygrass (Phalaris minor); assay: Test B postemergence plant response; details: Postemergence
How it was run: (§2)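 Following treatment of plants 2 to 18 cm high after emergence, pots were held under glass for 13 to 15 days; efficacy was then graded visually, 100 denoting complete control and a dash no test result.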

[10] = test system: chickweed (Stellaria media); assay: Test B postemergence plant response; details: for Plant response rating, Chickweed: Postemergence
How it was run: as §2

[11] = test system: windgrass (Apera spica-venti); assay: Test B postemergence plant response; details: for Plant response rating, Windgrass: Postemergence
How it was run: as §2

[12] = test system: winter barley (Hordeum vulgare); assay: Test B postemergence plant response; details: Postemergence, scale 0 to 100, 0 no effect, 100 complete control
How it was run: as §2

[13] = test system: barnyardgrass (Echinochloa crus-galli); assay: Test B flooded paddy test plant response
How it was run: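 Rice, umbrella sedge, ducksalad and barnyardgrass at 2-leaf stage; pots flooded to 3 cm, compounds applied into paddy water, depth held throughout. Greenhouse 13 to 15 days, then visual rating vs untreated controls on 0–100 scale (0 no effect, 100 complete control); dash means no test result.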

[14] = Postemergence, 16 g ai/ha, scale 0 to 100
[15] = Postemergence, 31 g ai/ha, scale 0 to 100, 0 no effect, 100 complete control
[16] = Postemergence, 62 g ai/ha, scale 0 to 100, 0 no effect, 100 complete control
[17] = Preemergence, 16 g ai/ha, scale 0 to 100 (0 no effect, 100 complete control)
[18] = Preemergence, 31 g ai/ha, 0 to 100 scale, 0 no effect, 100 complete control
[19] = Preemergence, 62 g ai/ha, scale 0 to 100
[20] = Preemergence, 31 g ai/ha, scale 0 to 100 (0 no effect, 100 complete control)
[21] = 31 g ai/ha, scale 0 to 100, 0 no effect, 100 complete control
[22] = 62 g ai/ha, scale 0 to 100, 0 no effect, 100 complete control
[23] = 8 g ai/ha, postemergence, 0-100 scale

CCc1cc(-c2ccc(Cl)cc2)nn1-c1c(OC(=O)OC(C)C)cnn(C)c1=O [Compound 41]
Bermudagrass plant response rating ([1]; postemergence, 0-100 scale): 0 | Plant response rating, Bermudagrass [1, 14]: 0 | Plant response rating, Bermudagrass [1, 15]: 25 | Plant response rating, Bermudagrass [1, 16]: 95 | Bermudagrass plant response rating ([1]; Preemergence, scale 0 to 100 (0 no effect, 100 complete control)): 0 | Plant response rating, Bermudagrass [1, 17]: 0 | Plant response rating, Bermudagrass [1, 18]: 0 | Plant response rating, Bermudagrass [1, 19]: 0 | Blackgrass plant response rating ([2]; postemergence, 0-100 scale): 85 | Plant response rating, Blackgrass [2, 14]: 90 | Plant response rating, Blackgrass [2, 15]: 95 | Plant response rating, Blackgrass [2, 16]: 95 | Plant response rating, Blackgrass [2, 17]: 100 | Plant response rating, Blackgrass [2, 18]: 100 | Plant response rating, Blackgrass [2, 19]: 100 | Blackgrass plant response rating ([2]; Preemergence, scale 0 to 100): 95 | Corn plant response rating (corn (Zea mays); postemergence, 0-100 scale): 85 | Plant response rating, Corn (corn (Zea mays); [14]): 85 | Plant response rating, Corn (corn (Zea mays); [15]): 95 | Plant response rating, Corn (corn (Zea mays); [16]): 95 | Plant response rating, Corn (corn (Zea mays); [17]): 65 | Plant response rating, Corn (corn (Zea mays); [18]): 85 | Plant response rating, Corn (corn (Zea mays); [19]): 95 | Corn plant response rating (corn (Zea mays); Preemergence, scale 0 to 100): 45 | Plant response rating, Nightshade, E. B. ([3]; 16 g ai/ha, scale 0 to 100 (0 no effect, 100 complete control)): 0 | Plant response rating, Nightshade, E. B. ([3]; 31 g ai/ha, scale 0 to 100 (0 no effect, 100 complete control)): 0 | Plant response rating, Nightshade, E. B. ([3]; 62 g ai/ha, scale 0 to 100): 0 | Nightshade, E. B. plant response rating ([3]; 8 g ai/ha, scale 0 to 100): 0 | Foxtail, Giant plant response rating ([4]; postemergence, 0-100 scale): 100 | Plant response rating, Foxtail, Giant [4, 14]: 100 | Plant response rating, Foxtail, Giant [4, 15]: 100 | Plant response rating, Foxtail, Giant [4, 16]: 100 | Plant response rating, Foxtail, Giant [4, 17]: 0 | Plant response rating, Foxtail, Giant [4, 18]: 0 | Plant response rating, Foxtail, Giant [4, 19]: 98 | Foxtail, Giant plant response rating ([4]; Preemergence, scale 0 to 100): 0 | Lambsquarters plant response rating ([5]; postemergence, 0-100 scale): 0 | Plant response rating, Lambsquarters [5, 14]: 0 | Plant response rating, Lambsquarters [5, 15]: 0 | Plant response rating, Lambsquarters [5, 16]: 0 | Plant response rating, Lambsquarters [5, 17]: 0 | Plant response rating, Lambsquarters [5, 18]: 0 | Plant response rating, Lambsquarters [5, 19]: 0 | Lambsquarters plant response rating ([5]; Preemergence, scale 0 to 100): 0 | Morningglory plant response rating ([6]; postemergence, 0-100 scale): 0 | Plant response rating, Morningglory [6, 14]: 0 | Plant response rating, Morningglory [6, 15]: 0 | Plant response rating, Morningglory [6, 16]: 0 | Plant response rating, Morningglory [6, 17]: 0 | Plant response rating, Morningglory [6, 20]: 0 | Plant response rating, Morningglory [6, 19]: 0 | Morningglory plant response rating ([6]; Preemergence, scale 0 to 100): 0 | Velvetleaf plant response rating ([7]; postemergence, 0-100 scale): 0 | Plant response rating, Velvetleaf [7, 14]: 0 | Plant response rating, Velvetleaf [7, 16]: 0 | Plant response rating, Velvetleaf [7, 17]: 0 | Plant response rating, Velvetleaf [7, 20]: 0 | Plant response rating, Velvetleaf ([7]; Preemergence, 62 g ai/ha, 0 to 100 scale, 0 no effect, 100 complete control): 0 | Velvetleaf plant response rating ([7]; Preemergence, scale 0 to 100): 0 | Oat, Wild plant response rating (wild oat (Avena fatua); postemergence, 0-100 scale): 100 | Plant response rating, Oat, Wild (wild oat (Avena fatua); [14]): 100 | Plant response rating, Oat, Wild (wild oat (Avena fatua); [15]): 100 | Plant response rating, Oat, Wild (wild oat (Avena fatua); [16]): 100 | Plant response rating, Oat, Wild (wild oat (Avena fatua); [17]): 85 | Plant response rating, Oat, Wild (wild oat (Avena fatua); [20]): 95 | Plant response rating, Oat, Wild (wild oat (Avena fatua); [19]): 95 | Oat, Wild plant response rating (wild oat (Avena fatua); Preemergence, scale 0 to 100): 70 | Nutsedge, Yellow plant response rating ([8]; postemergence, 0-100 scale): 0 | Plant response rating, Nutsedge, Yellow [8, 14]: 0 | Plant response rating, Nutsedge, Yellow [8, 15]: 0 | Plant response rating, Nutsedge, Yellow [8, 16]: 0 | Plant response rating, Nutsedge, Yellow [8, 17]: 0 | Plant response rating, Nutsedge, Yellow [8, 20]: 0 | Plant response rating, Nutsedge, Yellow [8, 19]: 0 | Nutsedge, Yellow plant response rating ([8]; Preemergence, scale 0 to 100): 0 | Plant response rating, Canarygrass ([9]; 16 g ai/ha, scale 0 to 100): 0 | Plant response rating, Canarygrass [9, 21]: 0 | Plant response rating, Canarygrass [9, 22]: 0 | Chickweed plant response rating [10, 23]: 0 | Plant response rating, Chickweed ([10]; 16 g ai/ha, scale 0 to 100): 0 | Plant response rating, Chickweed [10, 21]: 0 | Plant response rating, Chickweed [10, 22]: 0 | Windgrass plant response rating [11, 23]: 30 | Plant response rating, Windgrass ([11]; 16 g ai/ha, scale 0 to 100): 60 | Plant response rating, Windgrass [11, 22]: 85 | Plant response rating, Barley ([12]; 16 g ai/ha): 0 | Plant response rating, Barley ([12]; 31 g ai/ha): 0 | Plant response rating, Barley ([12]; 62 g ai/ha): 0 | Plant response rating, Barnyardgrass ([13]; Flood (flooded paddy test), 62 g ai/ha, scale 0 to 100, 0 no effect, 100 complete control): 75 | Plant response rating, Barnyardgrass ([13]; Flood (flooded paddy test), 125 g ai/ha, scale 0 to 100, 0 no effect, 100 complete control): 80 | Plant response rating, Barnyardgrass ([13]; Flood (flooded paddy test), 250 g ai/ha, scale 0 to 100, 0 no effect, 100 complete control): 95 | Plant response rating, Barnyardgrass ([13]; Flood, 31 g ai/ha, scale 0 to 100): 60
